{
  "source": "the supplement of paper PMC10307832",
  "assay_in_all_cases": "relative viability (nuclei count vs DMSO), 5 days (fraction); higher = more cells survive",
  "key": {"[1]": {"tested_on": "HCC-366", "how_it_was_run": "(§1)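 Nuclei were stained with Hoechst during a one-step fixation (final 0.05% Triton X-100, 1% formaldehyde, 1 ug/ml Hoechst) carried out 5 days after dosing, then counted on 4× images. The cells, lung cancer lines in 1536-well plates, had been dosed by pin tool the day after seeding with one drug alone or a fixed anchor-drug dose plus five library-drug doses (not always all listed) in √10 steps. Relative viability is the nuclei count in treated wells divided by that in vehicle wells, and each value is the median of duplicate plates.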"}, "[2]": {"tested_on": "NCI-H661", "how_it_was_run": "as §1"}, "[3]": {"tested_on": "NCI-H1395", "how_it_was_run": "as §1"}, "[4]": {"tested_on": "EKVX", "how_it_was_run": "as §1"}, "[5]": {"tested_on": "NCI-H2009", "how_it_was_run": "as §1"}, "[6]": {"tested_on": "NCI-H2405", "how_it_was_run": "as §1"}, "[7]": {"tested_on": "NCI-H596", "how_it_was_run": "as §1"}, "[8]": {"tested_on": "NCI-H647", "how_it_was_run": "as §1"}, "[9]": {"tested_on": "LOU-NH91", "how_it_was_run": "as §1"}, "[10]": {"tested_on": "BEN", "how_it_was_run": "as §1"}, "[11]": {"tested_on": "LC-2-ad", "how_it_was_run": "as §1"}, "[12]": {"tested_on": "NCI-H2170", "how_it_was_run": "as §1"}, "[13]": {"tested_on": "NCI-H2342", "how_it_was_run": "as §1"}, "[14]": {"tested_on": "NCI-H1437", "how_it_was_run": "as §1"}, "[15]": {"tested_on": "SK-MES-1", "how_it_was_run": "as §1"}, "[16]": {"tested_on": "HCC-827", "how_it_was_run": "as §1"}, "[17]": {"tested_on": "NCI-H1734", "how_it_was_run": "as §1"}, "[18]": {"tested_on": "NCI-H2228", "how_it_was_run": "as §1"}, "[19]": {"tested_on": "HARA", "how_it_was_run": "as §1"}, "[20]": {"tested_on": "NCI-H2087", "how_it_was_run": "as §1"}, "[21]": {"tested_on": "SK-LU-1", "how_it_was_run": "as §1"}, "[22]": {"tested_on": "NCI-H1355", "how_it_was_run": "as §1"}},
  "data": [
    {"compound": "Oc1nc(-c2ccc(C(F)(F)F)cc2)nc2c1CSCC2", "note": "[XAV939] + Cc1cc(Nc2cc(N3CCN(C)CC3)nc(Sc3ccc(NC(=O)C4CC4)cc3)n2)n[nH]1 [Tozasertib] (partner 0.1 µM)", "values": [
      {"measurement": "relative viability", "setting": "[1]; first compound 0.08 µM", "value": 0.163},
      {"measurement": "relative viability", "setting": "[1]; first compound 0.253 µM", "value": 0.0951},
      {"measurement": "relative viability", "setting": "[1]; first compound 0.8 µM", "value": 0.116},
      {"measurement": "relative viability", "setting": "[1]; first compound 2.53 µM", "value": 0.0569},
      {"measurement": "relative viability", "setting": "[2]; first compound 0.08 µM", "value": 0.364},
      {"measurement": "relative viability", "setting": "[2]; first compound 0.253 µM", "value": 0.346},
      {"measurement": "relative viability", "setting": "[2]; first compound 0.8 µM", "value": 0.365},
      {"measurement": "relative viability", "setting": "[2]; first compound 2.53 µM", "value": 0.339},
      {"measurement": "relative viability", "setting": "[3]; first compound 0.08 µM", "value": 0.716},
      {"measurement": "relative viability", "setting": "[3]; first compound 0.253 µM", "value": 0.651},
      {"measurement": "relative viability", "setting": "[3]; first compound 0.8 µM", "value": 0.797},
      {"measurement": "relative viability", "setting": "[3]; first compound 2.53 µM", "value": 0.632},
      {"measurement": "relative viability", "setting": "[4]; first compound 0.08 µM", "value": 0.47},
      {"measurement": "relative viability", "setting": "[4]; first compound 0.253 µM", "value": 0.36},
      {"measurement": "relative viability", "setting": "[4]; first compound 0.8 µM", "value": 0.372},
      {"measurement": "relative viability", "setting": "[4]; first compound 2.53 µM", "value": 0.29},
      {"measurement": "relative viability", "setting": "[5]; first compound 0.08 µM", "value": 0.84},
      {"measurement": "relative viability", "setting": "[5]; first compound 0.253 µM", "value": 0.66},
      {"measurement": "relative viability", "setting": "[5]; first compound 0.8 µM", "value": 0.713},
      {"measurement": "relative viability", "setting": "[5]; first compound 2.53 µM", "value": 0.647},
      {"measurement": "relative viability", "setting": "[6]; first compound 0.08 µM", "value": 0.805},
      {"measurement": "relative viability", "setting": "[6]; first compound 0.253 µM", "value": 0.72},
      {"measurement": "relative viability", "setting": "[6]; first compound 0.8 µM", "value": 0.712},
      {"measurement": "relative viability", "setting": "[6]; first compound 2.53 µM", "value": 0.66},
      {"measurement": "relative viability", "setting": "[7]; first compound 0.08 µM", "value": 0.915},
      {"measurement": "relative viability", "setting": "[7]; first compound 0.253 µM", "value": 0.798},
      {"measurement": "relative viability", "setting": "[7]; first compound 0.8 µM", "value": 1.07},
      {"measurement": "relative viability", "setting": "[7]; first compound 2.53 µM", "value": 0.939},
      {"measurement": "relative viability", "setting": "[8]; first compound 0.08 µM", "value": 0.288},
      {"measurement": "relative viability", "setting": "[8]; first compound 0.253 µM", "value": 0.217},
      {"measurement": "relative viability", "setting": "[8]; first compound 0.8 µM", "value": 0.262},
      {"measurement": "relative viability", "setting": "[8]; first compound 2.53 µM", "value": 0.146},
      {"measurement": "relative viability", "setting": "[9]; first compound 0.08 µM", "value": 0.655},
      {"measurement": "relative viability", "setting": "[9]; first compound 0.253 µM", "value": 0.663},
      {"measurement": "relative viability", "setting": "[9]; first compound 0.8 µM", "value": 0.637},
      {"measurement": "relative viability", "setting": "[9]; first compound 2.53 µM", "value": 0.695},
      {"measurement": "relative viability", "setting": "[10]; first compound 0.08 µM", "value": 0.579},
      {"measurement": "relative viability", "setting": "[10]; first compound 0.253 µM", "value": 0.451},
      {"measurement": "relative viability", "setting": "[10]; first compound 0.8 µM", "value": 0.542},
      {"measurement": "relative viability", "setting": "[10]; first compound 2.53 µM", "value": 0.444},
      {"measurement": "relative viability", "setting": "[11]; first compound 0.08 µM", "value": 0.481},
      {"measurement": "relative viability", "setting": "[11]; first compound 0.253 µM", "value": 0.446},
      {"measurement": "relative viability", "setting": "[11]; first compound 0.8 µM", "value": 0.488},
      {"measurement": "relative viability", "setting": "[11]; first compound 2.53 µM", "value": 0.381},
      {"measurement": "relative viability", "setting": "[12]; first compound 0.08 µM", "value": 0.763},
      {"measurement": "relative viability", "setting": "[12]; first compound 0.253 µM", "value": 0.606},
      {"measurement": "relative viability", "setting": "[12]; first compound 0.8 µM", "value": 0.66},
      {"measurement": "relative viability", "setting": "[12]; first compound 2.53 µM", "value": 0.463},
      {"measurement": "relative viability", "setting": "[13]; first compound 0.08 µM", "value": 0.592},
      {"measurement": "relative viability", "setting": "[13]; first compound 0.253 µM", "value": 0.511},
      {"measurement": "relative viability", "setting": "[13]; first compound 0.8 µM", "value": 0.419},
      {"measurement": "relative viability", "setting": "[13]; first compound 2.53 µM", "value": 0.301},
      {"measurement": "relative viability", "setting": "[14]; first compound 0.08 µM", "value": 0.419},
      {"measurement": "relative viability", "setting": "[14]; first compound 0.253 µM", "value": 0.335},
      {"measurement": "relative viability", "setting": "[14]; first compound 0.8 µM", "value": 0.443},
      {"measurement": "relative viability", "setting": "[14]; first compound 2.53 µM", "value": 0.414},
      {"measurement": "relative viability", "setting": "[15]; first compound 0.08 µM", "value": 0.956},
      {"measurement": "relative viability", "setting": "[15]; first compound 0.253 µM", "value": 0.816},
      {"measurement": "relative viability", "setting": "[15]; first compound 0.8 µM", "value": 0.807},
      {"measurement": "relative viability", "setting": "[15]; first compound 2.53 µM", "value": 0.768},
      {"measurement": "relative viability", "setting": "[16]; first compound 0.08 µM", "value": 0.423},
      {"measurement": "relative viability", "setting": "[16]; first compound 0.253 µM", "value": 0.387},
      {"measurement": "relative viability", "setting": "[16]; first compound 0.8 µM", "value": 0.414},
      {"measurement": "relative viability", "setting": "[16]; first compound 2.53 µM", "value": 0.384},
      {"measurement": "relative viability", "setting": "[17]; first compound 0.08 µM", "value": 0.243},
      {"measurement": "relative viability", "setting": "[17]; first compound 0.253 µM", "value": 0.206},
      {"measurement": "relative viability", "setting": "[17]; first compound 0.8 µM", "value": 0.261},
      {"measurement": "relative viability", "setting": "[17]; first compound 2.53 µM", "value": 0.293},
      {"measurement": "relative viability", "setting": "[18]; first compound 0.08 µM", "value": 0.31},
      {"measurement": "relative viability", "setting": "[18]; first compound 0.253 µM", "value": 0.23},
      {"measurement": "relative viability", "setting": "[18]; first compound 0.8 µM", "value": 0.247},
      {"measurement": "relative viability", "setting": "[18]; first compound 2.53 µM", "value": 0.255},
      {"measurement": "relative viability", "setting": "[19]; first compound 0.08 µM", "value": 0.107},
      {"measurement": "relative viability", "setting": "[19]; first compound 0.253 µM", "value": 0.0774},
      {"measurement": "relative viability", "setting": "[19]; first compound 0.8 µM", "value": 0.102},
      {"measurement": "relative viability", "setting": "[19]; first compound 2.53 µM", "value": 0.103},
      {"measurement": "relative viability", "setting": "[20]; first compound 0.08 µM", "value": 0.234},
      {"measurement": "relative viability", "setting": "[20]; first compound 0.253 µM", "value": 0.231},
      {"measurement": "relative viability", "setting": "[20]; first compound 0.8 µM", "value": 0.256},
      {"measurement": "relative viability", "setting": "[20]; first compound 2.53 µM", "value": 0.181},
      {"measurement": "relative viability", "setting": "[21]; first compound 0.08 µM", "value": 0.35},
      {"measurement": "relative viability", "setting": "[21]; first compound 0.253 µM", "value": 0.267},
      {"measurement": "relative viability", "setting": "[21]; first compound 0.8 µM", "value": 0.322},
      {"measurement": "relative viability", "setting": "[21]; first compound 2.53 µM", "value": 0.279},
      {"measurement": "relative viability", "setting": "[22]; first compound 0.08 µM", "value": 0.715},
      {"measurement": "relative viability", "setting": "[22]; first compound 0.253 µM", "value": 0.473},
      {"measurement": "relative viability", "setting": "[22]; first compound 0.8 µM", "value": 0.548},
      {"measurement": "relative viability", "setting": "[22]; first compound 2.53 µM", "value": 0.411}
    ]}
  ]
}
